From ChEMBL document CHEMBL1649292, “In vivo investigations of selected diamidine compounds against Trypanosoma evansi using a mouse model” (2009)
The source made the active and inactive calls. No cut-off for these calls is given here.

Tests used:
[1] = test system: Trypanosoma evansi; test: Antimicrobial activity against Trypanosoma evansi STIB 806K infected in NMRI mouse assessed as host survival days at 2 mg/kg, ip administered 3 to 6 days after infection for 4 consecutive days; type: functional; conditions: route intraperitoneal
[2] = test system: Trypanosoma evansi; test: Antimicrobial activity against Trypanosoma evansi STIB 806K infected in NMRI mouse assessed as host survival days at 0.5 mg/kg, ip administered 3 to 6 days after infection for 4 consecutive days; type: functional; conditions: route intraperitoneal
[3] = test system: Trypanosoma evansi; test: Antimicrobial activity against Trypanosoma evansi STIB 806K infected in NMRI mouse assessed as complete cure from microbial infection at 0.5 mg/kg, ip administered 3 to 6 days after infection for 4 consecutive days; type: functional, organism-based; design: dose 0.5 mg/kg
[4] = test system: Trypanosoma evansi; test: Antimicrobial activity against Trypanosoma evansi STIB 806K infected in NMRI mouse assessed as complete cure from microbial infection at 2 mg/kg, ip administered 3 to 6 days after infection for 4 consecutive days; type: functional, organism-based; design: dose 2 mg/kg
[5] = test system: Trypanosoma evansi; test: Antimicrobial activity against Trypanosoma evansi STIB 806K infected in NMRI mouse assessed as host survival days at 0.125 mg/kg, ip administered 3 to 6 days after infection for 4 consecutive days; type: functional; conditions: route intraperitoneal
[6] = test system: Trypanosoma evansi; test: Antimicrobial activity against Trypanosoma evansi STIB 806K infected in NMRI mouse assessed as host survival days at 0.25 mg/kg, ip administered 3 to 6 days after infection for 4 consecutive days; type: functional; conditions: route intraperitoneal
[7] = test system: Trypanosoma evansi; test: Antimicrobial activity against Trypanosoma evansi STIB 806K infected in NMRI mouse assessed as complete cure from microbial infection at 0.25 mg/kg, ip administered 3 to 6 days after infection for 4 consecutive days; type: functional, organism-based; design: dose 0.25 mg/kg
[8] = test system: Trypanosoma evansi; test: Antimicrobial activity against Trypanosoma evansi STIB 806K infected in NMRI mouse assessed as complete cure from microbial infection at 0.125 mg/kg, ip administered 3 to 6 days after infection for 4 consecutive days; type: functional, organism-based; design: dose 0.125 mg/kg
[9] = test system: Trypanosoma evansi; test: Antimicrobial activity against Trypanosoma evansi STIB 806K infected in NMRI mouse assessed as complete cure from microbial infection at 0.0625 mg/kg, ip administered 3 to 6 days after infection for 4 consecutive days; type: functional, organism-based; design: dose 0.0625 mg/kg
[10] = test system: Trypanosoma evansi; test: Antimicrobial activity against Trypanosoma evansi STIB 806K infected in NMRI mouse assessed as host survival days at 0.0625 mg/kg, ip administered 3 to 6 days after infection for 4 consecutive days; type: functional; conditions: route intraperitoneal
[11] = test system: Trypanosoma evansi; test: Antimicrobial activity against Trypanosoma evansi STIB 806K infected in NMRI mouse assessed as host survival days at 0.03125 mg/kg, ip administered 3 to 6 days after infection for 4 consecutive days; type: functional; conditions: route intraperitoneal
[12] = test system: Trypanosoma evansi; test: Antimicrobial activity against Trypanosoma evansi STIB 806K infected in NMRI mouse assessed as complete cure from microbial infection at 0.2 mg/kg, ip administered 3 to 6 days after infection for 4 consecutive days; type: functional, organism-based; design: dose 0.2 mg/kg
[13] = test system: Trypanosoma evansi; test: Antimicrobial activity against Trypanosoma evansi STIB 806K infected in NMRI mouse assessed as host survival days at 0.2 mg/kg, ip administered 3 to 6 days after infection for 4 consecutive days; type: functional; conditions: route intraperitoneal
[14] = test system: Trypanosoma evansi; test: Antimicrobial activity against Trypanosoma evansi STIB 806K infected in NMRI mouse assessed as complete cure from microbial infection at 0.20 mg/kg, ip administered 3 to 6 days after infection for 4 consecutive days; type: functional, organism-based; design: dose 0.2 mg/kg
[15] = test system: Trypanosoma evansi; test: Antimicrobial activity against Trypanosoma evansi STIB 806K infected in NMRI mouse assessed as host survival days at 0.20 mg/kg, ip administered 3 to 6 days after infection for 4 consecutive days; type: functional; conditions: dose 0.2 mg/kg; route intraperitoneal
[16] = test system: Trypanosoma evansi; test: Antimicrobial activity against Trypanosoma evansi STIB 806K infected in NMRI mouse assessed as host survival days at 1 mg/kg, ip administered 3 to 6 days after infection for 4 consecutive days; type: functional; conditions: route intraperitoneal
[17] = test system: Trypanosoma evansi; test: Antimicrobial activity against Trypanosoma evansi STIB 806K infected in NMRI mouse assessed as complete cure from microbial infection at 1 mg/kg, ip administered 3 to 6 days after infection for 4 consecutive days; type: functional, organism-based; design: dose 1 mg/kg

SMILES | Survival [1] | Survival [2] | Activity [3] | Activity [4] | further results
Cn1c(-c2ccc(C(=N)N)cc2)ccc1-c1ccc(C(=N)N)cc1 | 49 days |  |  |  | 
c1cc(-c2cc3cc(C4=NCCN4)ccc3[nH]2)ccc1C1=NCCN1 | 39 days |  |  |  | 
COc1cc(C(=N)N)ccc1OCCCOc1ccc(C(=N)N)cc1OC | 29 days |  |  |  | 
N=C(N)c1ccc(-c2csc(-c3ccc(C(=N)N)cc3)n2)cc1 | 53 days |  |  |  | 
N=C(N)c1ccc(-c2cccc(-c3ccc(C(=N)N)cc3)n2)cc1 |  | 16 days | inactive |  | 
N=C(N)c1ccc(-c2ccc(-c3ccc(C(=N)N)nc3)o2)cc1 | 60 days | 60 days | Active | Active | Survival [5]: 46 days; Survival [6]: 54 days
N=C(N)c1ccc(-c2ccc(-c3nc4cc(C(=N)N)ccc4o3)o2)cc1 | 23 days |  |  | inactive | 
N=C(N)c1ccc(-c2ccc(-c3ccc(C(=N)N)cn3)o2)cc1 |  | 60 days | Active |  | Survival [5]: 50 days; Survival [6]: 60 days; Activity [7]: Active
COc1cc(-c2ccc(C(=N)N)cc2)c(OC)cc1-c1ccc(C(=N)N)cc1 |  | 7 days | inactive |  | 
CNC(=N)Nc1ccc(-c2ccc(-c3ccc(NC(=N)NC)cc3)cc2)cc1 |  | 13 days | inactive |  | 
NCCS[As](SCCN)c1ccc(Nc2nc(N)nc(N)n2)cc1 |  |  |  |  | Activity [8]: Active; Survival [5]: 60 days; Activity [9]: Active; Survival [10]: 60 days; Survival [11]: 37 days
N=C(N)c1ccc(-c2ccc(-c3ccc(C(=N)N)nc3)o2)nc1 | 60 days | 60 days | Active | Active | Survival [5]: 23 days; Survival [6]: 46 days
N=C(N)c1ccc2nc(-c3ccc(-c4ccc(C(=N)N)c(F)c4)o3)[nH]c2c1 |  | 27 days | inactive |  | 
N=C(N)c1ccc(-c2ccc(-c3cn4cc(C(=N)N)ccc4n3)cc2)cc1 | 35 days |  |  |  | Activity [12]: inactive; Survival [13]: 12 days
Cc1cc(C(=N)N)ccc1-c1cc2cc(C(=N)N)ccc2[nH]1 | 60 days | 60 days | Active | Active | Survival [5]: 29 days; Survival [6]: 51 days
N=C(N)c1ccc(-c2cccc(-c3nc4ccc(C(=N)N)cc4[nH]3)c2)nc1 | 18 days |  |  | inactive | 
COc1cc(C(=N)N)ccc1-c1ccnc(-c2ccc(C(=N)N)cc2)n1 |  | 15 days | inactive |  | 

SMILES | Survival [1] | Survival [2] | Activity [3] | Activity [4] | further results
N=C(N)c1cccc(-c2ccc(-c3nc4cc(C(=N)N)ccc4[nH]3)cc2)c1 |  | 12 days | inactive |  | 
Cc1cc(C(=N)N)cn2cc(-c3ccc(-c4ccc(C(=N)N)cc4)o3)nc12 | 13 days |  |  | inactive | 
N=C(N)c1ccc(-c2cc(-c3ccc(C(=N)N)cc3)on2)cc1 | 60 days | 29 days |  | Active | 
N=C(N)c1ccc(-c2ccc(-c3ccc(C(=N)N)cc3O)o2)cc1 | 60 days | 60 days | Active | Active | Survival [5]: 32 days; Survival [6]: 38 days
N=C(N)c1ccc(-c2ccc(-c3ccc(C(=N)N)cc3)o2)cc1 [FURAMIDINE] |  |  |  |  | Survival [5]: 55 days; Survival [10]: 29 days; Survival [6]: 60 days; Activity [7]: Active; Activity [14]: Active; Survival [15]: 60 days
Cc1cc(=N)c2ccc(Nc3cc(C)[n+](C)c(N)n3)cc2n1C.O=S(=O)([O-])O [QUINAPYRAMINE SULFATE] |  | 57 days |  |  | Survival [16]: 60 days; Activity [17]: Active; Survival [6]: 41 days
N=C(N)c1ccc(-c2coc(-c3ccc(C(=N)N)cc3)c2)cc1 | 60 days | 57 days |  | Active | Survival [6]: 41 days
Cc1cc(C2=NCCN2)ccc1-c1cc2cc(C3=NCCN3)ccc2[nH]1 |  | 7 days | inactive |  | 
Cn1c(-c2ccc(C(=N)N)nc2)ccc1-c1ccc(C(=N)N)nc1 |  | 34 days |  |  | 
N=C(N)c1ccc(/N=N/Nc2ccc(C(=N)N)cc2)cc1 [DIMINAZENE] | 60 days |  |  | Active | Survival [16]: 44 days; Activity [12]: inactive; Survival [13]: 9 days
Cc1cc(C(=N)N)ccc1-c1ccc(-c2nc3ccc(C(=N)N)cc3[nH]2)o1 |  | 16 days | inactive |  | 
CNC(=N)c1ccc(OCCCCCOc2ccc(C(=N)NC)cc2)cc1 | 29 days |  |  | inactive | 
N=C(N)c1ccc(-c2ccc(-c3ccc(C(=N)N)o3)cn2)cc1 | 28 days |  |  |  | 
N=C(N)c1ccc(-c2ccc(-c3ccc4ccc(C(=N)N)cc4c3)o2)cc1 |  | 15 days | inactive |  | 
N=C(N)c1ccc(-c2ccc(-c3ccc(C(=N)N)cc3F)o2)c(F)c1 |  | 43 days |  |  | 
Cc1ccc(C(=O)Nc2ccc(S(=O)(=O)O)c3cc(S(=O)(=O)O)cc(S(=O)(=O)O)c23)cc1NC(=O)c1cccc(NC(=O)Nc2cccc(C(=O)Nc3cc(C(=O)Nc4ccc(S(=O)(=O)O)c5cc(S(=O)(=O)O)cc(S(=O)(=O)O)c45)ccc3C)c2)c1 [SURAMIN] |  | 51 days |  |  | Survival [16]: 60 days; Activity [17]: Active; Survival [6]: 11 days; Activity [7]: inactive
